Experiments:
[1] = test system: Alkaline-phosphatase (“ALP”); conditions: D-2a 0.20 wt %/2.77 mM
Text: […] Scale bar=100 nm.
Napthalene capped tripeptide precursor molecule D-2a and hydrogelator molecule D-2b, synthesized according to Yang et al. (Small 3:558-562 (2007), which is hereby incorporated by reference in its entirety), are comprised of the tripeptide D-Phe-D-Phe-D-Tyr (FIG. 1B). The D-Tyr of D-2a is phosphorylated (FIG. 1B).

HeLa cells [2] = assay: Negative stained TEM of pericellular hydrogel on HeLa cells; format: physicochemical, human; conditions: HeLa cells treated with 280 μM D-2a
Method: Carbon coated copper grids were glow-discharged to increase their hydrophilicity prior to use. Pericellular hydrogel/nanofibrils were obtained by incubating D-2a at 280 μM with HeLa cells for 2 hours. Cell culture medium was removed in order to expose the pericellular hydrogel. The carbon coated side of the grid was gently pressed onto the pericellular hydrogel for 1 second. Next, the sample-loaded surface was washed using a drop of ddH2O. To remove excess water from the grid, the edge of the grid was immediately tilted and blotted three times against a filter paper. The grid was stained by letting the grid touch a drop of 2.0% (w/v) uranyl acetate with the sample-loaded surface. Excessive stain solution was removed by gently touching the grid with a drop of ddH2O. The grid was then dried by touching the edge of the grid with a filter paper for 3 times. The grid was air dried for a few minutes and examined immediately.
That is, the nanofibrils form nanonets. Similar to the nanofibrils of D-2b formed by the addition of ALP into the solution of D-2a in PBS buffer (FIG. 7), these cell-surface nanofibrils entangle with each other to form the matrices of the hydrogel.

HeLa cells [3] = assay: Cell migration (wound healing) assay; format: cell-based, human; conditions: 18 hours
Method: Cell migration was evaluated using the wound healing assay with the CytoSelect™ Wound Healing Assay Kit (Cell Biolabs, Inc). Wound healing inserts with width at 0.9 mm were placed into 24-well plates. 0.8 mL of HeLa cells at 2×10^5 cells/mL were added to either side of the insert and incubated overnight to form a confluent layer. Inserts were then carefully removed to expose the gap. After removing the culture medium, new medium containing the molecules was added to cells. The cells were next incubated at 37° C., 5% CO2 for 18 hours. Images of gaps before and after the addition of the molecules were captured using a microscope at a magnification of ×40. Cell migration was quantified by measuring the change in gap distance.

active PARP = assay: Apoptosis pathway assay (ELISA), active PARP; format: cell-based, human; conditions: HeLa cells, 280 μM, at 24 and 32 hours of incubation
Method: The apoptosis pathway was evaluated using the PathScan® Apoptosis Multi-Target Sandwich ELISA Kit (Cell Signaling Technology) following the supplied protocol. Cells in exponential growth phase were seeded in a 6 cm Petri dish at a concentration of 10×10^5 cells/dish (5 dishes). Cells were allowed to attach to the wells for 24 hours at 37° C., 5% CO2. The culture medium was removed and 5 mL medium containing 280 μM D-2a (immediately diluted from fresh prepared stock solution of 11.2 mM) was placed into each dish. At 0, 6, 12, 24, or 32 hours, the medium was removed and cells were washed three times with cold PBS buffer. 0.9 mL lysis buffer was used to lyse cells in each dish, and 0.9 mL of diluents buffer was used to dilute each of the cell lysate. The lysate was incubated in the provided 96 well plate at 4° C. for 24 hours.
ELISA was used to quantify the amount of several key apoptosis signal molecules over time in the HeLa cells incubated with 280 μM D-2a (FIG. 3E).

MES-SA/dx5 cells = assay: Cell viability assay (MTT), MES-SA/dx5; format: cell-based, human; conditions: 280 μM; multi-drug resistant cells
Method: Cells in exponential growth phase were seeded in a 96 well plate at a concentration of 2×10^4 cells/well. The cells were allowed to attach to the wells for 24 hours at 37° C., 5% CO2. The culture medium was removed and 100 μL culture medium containing compounds (immediately diluted from fresh prepared stock solution of 10 mM) at gradient concentrations (0 μM as the control) was placed into each well. After culturing at 37° C., 5% CO2 for 48 hours, each well was added by 10 μL of 5 mg/mL MTT (3-(4,5-dimethylthiazoL-2-yl)-2,5-diphenyltetrazolium bromide), and the plated cells were incubated in the dark for 4 hours. 100 μL 10% SDS with 0.01M HCl was added to each well to stop the reduction reaction and to dissolve the purple. After overnight incubation of the cells at 37° C., the OD at 595 nm of the solution was measured in a microplate reader. Data represent the mean±standard deviation of three independent experiments.

HeLa cells [4] = assay: Western blot of tubulin in pericellular nanonets versus CM; format: cell-based, human; conditions: nanonets after 3 or 6 hours of incubation versus CM collected at 24 hours
Method: To select the optimal incubation time for the collection of nanonets/hydrogel, HeLa cells were incubated with D-2a (for 3, 6, or 9 hours, respectively) to allow nanonet formation. The amount of tubulin (an indicator of autolysis) present in the nanonets/hydrogels at various time points was evaluated by Western blot and compared to the amount of tubulin present in conditioned media (“CM”) collected following 24 hours of incubation (FIG. 33A). […] The results also indicate the cell compatibility of the incubation and collection process for nanonets/hydrogel.

HeLa cells [5] = assay: Viability of cells after cold shock and nanonet collection; format: cell-based, human; conditions: 4 hour incubation with D-2a in FBS-free MEM, cold shock and medium removal
Method: FIGS. 33A-33B show the cell compatibility of the use of nanonets/hydrogel for collecting cancer secretome. FIG. 33A is a Western blot showing the amount of tubulins in CM collected after 24 hours of incubation or pericellular nanonets collected after 3 to 9 hours of incubation. […] Both CM and nanonets were collected in FBS-free MEM. […] Two trials, each has three repeats.
In another experiment the viability of cells following nanonet collection was evaluated following 4 hour incubation with D-2a and cold shock.

HeLa cells [6] = assay: Pericellular hydrogelation on HeLa cells (optical images); format: cell-based, human
Method: An 11.2 mM (8.09 mg/mL) stock solution of D-2a was prepared in ddH2O. The pH was adjusted to 7.4 using 1N NaOH. 2×10^5 cells in exponential growth phase were seeded in 35 mm Petri dish with 1 mL complete culture medium. Following overnight incubation, the medium was replaced with 1 mL of medium containing D-2a (diluted from the stock solution immediately prior to use). Petri dishes were incubated at 37° C. for two hours. Next, dishes were removed from the incubator and titled on a bench to visualize the pericellular hydrogel. Prior to co-incubation with phosphatase inhibitors, cells were washed three times with medium containing Pierce phosphatase inhibitor cocktail (Thermo) (contains sodium floride, sodium orthovanadate, sodium pyrophosphate, and beta-glycerophosphate). Next, 1 mL of medium containing both the inhibitor cocktail and D-2a was applied to the cells.

O=C(Cc1ccc2ccccc2c1)N[C@H](Cc1ccccc1)C(=O)N[C@H](Cc1ccccc1)C(=O)N[C@H](Cc1ccc(OP(=O)(O)O)cc1)C(=O)O [D-2a, Nap-D-Phe-D-Phe-D-Tyr(PO3H2)]
Hydrogel formation after ALP-catalyzed dephosphorylation [1]: self assembles to form the nanofibrils of a hydrogel | Diameter of nanofibrils of the pericellular hydrogel (HeLa cells [2]): about 20 nm | Cell migration (gap) (HeLa cells [3]; 280 μM): gaps larger than those of untreated cells | Cell migration (gap) (HeLa cells [3]; 560 μM): gaps larger than those of untreated cells | Amount of active PARP (active PARP): increase significantly | Growth inhibition (MES-SA/dx5 cells): inhibits the growth | Amount of tubulin (indicator of autolysis) in nanonets (HeLa cells [4]): contain less tubulin than CM | Cell viability after nanonet collection (HeLa cells [5]): hardly affected cell viability | Pericellular hydrogel formation on HeLa cells (HeLa cells [6]; 140 μM, 2 hours at 37° C.): Little hydrogelation | Pericellular hydrogel formation on HeLa cells (HeLa cells [6]; 280 μM, 2 hours at 37° C.): formation of a hydrogel-like soft material (hydrogel) on the cell surface | Pericellular hydrogel formation on HeLa cells (HeLa cells [6]; 560 μM D-2a in the presence of ALP (0.1 U/mL), 2 hours): hardly any pericellular hydrogelation | Pericellular hydrogel formation on HeLa cells (HeLa cells [6]; 560 μM D-2a with phosphatase inhibitors (Pierce), 2 hours): prevent formation of the pericellular hydrogel | Pericellular hydrogel formation on HeLa cells (HeLa cells [6]; 560 μM, 2 hours at 37° C.): formation of a hydrogel-like soft material (hydrogel) on the cell surface

— patent publication US11155576B2, “Synthetic peptides, enzymatic formation of pericellular hydrogels/nanofibrils, and methods of use” (BRANDEIS UNIVERSITY, priority 2014, dated 2021)
